Measurements published in patent publication US11643438B2, “Antimicrobial peptides and methods of use” (priority 2018, dated 2023).
In brackets after ≈: the same amount, converted by molar mass. Where two headings read alike, the source gives them in different places. Blank lines part the entries; values can stand above or below the compound they belong to. *1 amine or outer side, *2 acyl side, *3 side chain or, on linkers, in order; H or OH if unused. Where a SMILES comes first, the peptide text is derived from it. [ ]: non-standard residue; d: D form. X2 = CC[C@H](C)C[C@H](C)C[C@H](C)C[C@H](N[*:1])C(=O)[*:2]; X1 = CC[C@@H](C)[C@@H](O[*:1])C(=O)[*:2]; NMeVal(β-OH) = CN[C@H](C(=O)O)C(C)(C)O; aIle = CC[C@@H](C)[C@H](N)C(=O)O; NMeV = CN[C@H](C(=O)O)C(C)C; Sar = CNCC(=O)O

How the values were obtained:
Candida albicans 30 = experiment: Antifungal MIC80 assay, clinical yeast isolates
Candida glabrata 17 = experiment: Antifungal MIC80 assay, clinical yeast isolates
[1] = system: Aspergillus flavus NRRL485; experiment: Antifungal MIC80/MFC assay, fungal pathogen panel
Candida albicans SC5314 = experiment: Antifungal MIC80/MFC assay, fungal pathogen panel
[2] = system: Aspergillus fumigatus MYA 3627; experiment: Antifungal MIC80/MFC assay, fungal pathogen panel; conditions: MYA3627
Candida albicans 1 = experiment: Antifungal MIC80 assay, clinical yeast isolates
[3] = system: Paecilomyces lilacinus 165E10; experiment: Antifungal MIC80/MFC assay, fungal pathogen panel
Candida glabrata 2 = experiment: Antifungal MIC80 assay, clinical yeast isolates
Candida auris 390 = experiment: Antifungal MIC80 assay, clinical yeast isolates
[4] = system: Candida duobushaemulonii 391; experiment: Antifungal MIC80 assay, clinical yeast isolates
[5] = system: Hamigera insecticola NRRL35442; experiment: Antifungal MIC80/MFC assay, fungal pathogen panel
Candida parapsilosis 23 = experiment: Antifungal MIC80 assay, clinical yeast isolates
Candida krusei 397 = experiment: Antifungal MIC80 assay, clinical yeast isolates
Candida glabrata 16 = experiment: Antifungal MIC80 assay, clinical yeast isolates
[6] = system: Candida parapsilosis ATCC 22019 (Y-12969); experiment: Antifungal MIC80/MFC assay, fungal pathogen panel
Candida albicans 10 = experiment: Antifungal MIC80 assay, clinical yeast isolates
[7] = system: Candida krusei ATCC 6258 (Y-7179); experiment: Antifungal MIC80/MFC assay, fungal pathogen panel
Candida auris 382 = experiment: Antifungal MIC80 assay, clinical yeast isolates
Candida auris 386 = experiment: Antifungal MIC80 assay, clinical yeast isolates
[8] = system: 44 clinical yeast isolates (Candida, Kodameae, Saccharomyces); experiment: Antifungal MIC80 assay, summary over 44 clinical yeast isolates
Candida albicans 21 = experiment: Antifungal MIC80 assay, clinical yeast isolates
Candida auris 384 = experiment: Antifungal MIC80 assay, clinical yeast isolates
Candida glabrata 11 = experiment: Antifungal MIC80 assay, clinical yeast isolates
[9] = system: Candida tropicalis ATCC750 (Y-12699); experiment: Antifungal MIC80/MFC assay, fungal pathogen panel
Candida albicans 14 = experiment: Antifungal MIC80 assay, clinical yeast isolates
[10] = system: Rhizopus oryzae FGSC 9543; experiment: Antifungal MIC80/MFC assay, fungal pathogen panel
Candida parapsilosis 18 = experiment: Antifungal MIC80 assay, clinical yeast isolates
Candida albicans 24 = experiment: Antifungal MIC80 assay, clinical yeast isolates
[11] = system: Cryptococcus neoformans H99; experiment: Antifungal MIC80/MFC assay, fungal pathogen panel
Candida albicans 8 = experiment: Antifungal MIC80 assay, clinical yeast isolates
Candida krusei 25 = experiment: Antifungal MIC80 assay, clinical yeast isolates
Candida glabrata 20 = experiment: Antifungal MIC80 assay, clinical yeast isolates
[12] = system: Curvularia lunata NRRL6409; experiment: Antifungal MIC80/MFC assay, fungal pathogen panel
Candida auris 388 = experiment: Antifungal MIC80 assay, clinical yeast isolates
Candida haemulonii 393 = experiment: Antifungal MIC80 assay, clinical yeast isolates
[13] = Candida parapsilosis ATCC 22019 (Y-12969)
[14] = Candida krusei ATCC 6258 (Y-7179)
[15] = Candida tropicalis ATCC750 (Y-12699)
[16] = Purpureocillium lilacinum, 165E10
[17] = Lodderomyces parapsilosis, ATCC22019

MIC80 (Candida albicans 30): 2.5 µM (≈ 2.31 µg/mL)
MIC80 (Candida glabrata 17; Candida glabrata 17): 0.3 µM (≈ 0.277 µg/mL)
MIC80 [1]: 5 µM (≈ 4.62 µg/mL)
MIC80 (Candida albicans SC5314): 0.6 µM (≈ 0.554 µg/mL)
MIC80 [2]: 2.5 µM (≈ 2.31 µg/mL)
MIC80 (Candida albicans 1): 0.6 µM (≈ 0.554 µg/mL)
MIC80 ([3]; Paecilomyces lilacinus 165E10): >10 µM
MIC80 (Candida glabrata 2; Candida glabrata 2): 0.3 µM (≈ 0.277 µg/mL)
MIC80 (Candida auris 390; Candida auris 390, multidrug-resistant): 2.5 µM (≈ 2.31 µg/mL)
MIC80 ([4]; Candida duobushaemulonii 391, multidrug-resistant): 5 µM (≈ 4.62 µg/mL)
MIC80 (Candida parapsilosis 23; Candida parapsilosis 23): 1.25 µM (≈ 1.16 µg/mL)
MIC80 (Candida krusei 397; Candida krusei 397, multidrug-resistant): 2.5 µM (≈ 2.31 µg/mL)
MIC80 (Candida glabrata 16; Candida glabrata 16): 0.15 µM (≈ 0.139 µg/mL)
MIC80 [6, 13]: 1.25 µM (≈ 1.16 µg/mL)
MIC80 (Candida albicans 10): 0.6 µM (≈ 0.554 µg/mL)
MIC80 [7, 14]: 2.5 µM (≈ 2.31 µg/mL)
MIC80 (Candida auris 382; Candida auris 382, multidrug-resistant): 1.25 µM (≈ 1.16 µg/mL)
MIC80 (Candida auris 386; Candida auris 386, multidrug-resistant): 2.5 µM (≈ 2.31 µg/mL)
maximum MIC80 value ([8]; 44 clinical yeast isolates): 2.5 µM
median MIC80 ([8]; 44 clinical yeast isolates): 1.25 µM
minimum MIC80 value ([8]; 44 clinical yeast isolates): 0.15 µM
MIC80 (Candida albicans 21): 0.6 µM (≈ 0.554 µg/mL)
MIC80 (Candida auris 384; Candida auris 384, multidrug-resistant): 2.5 µM (≈ 2.31 µg/mL)
MIC80 (Candida glabrata 11; Candida glabrata 11): 0.3 µM (≈ 0.277 µg/mL)
MIC80 [9, 15]: 1.25 µM (≈ 1.16 µg/mL)
MIC80 (Candida albicans 14): 1.25 µM (≈ 1.16 µg/mL)
MIC80 ([10]; Rhizopus oryzae FGSC 9543): 0.3 µM (≈ 0.277 µg/mL)
MIC80 (Candida parapsilosis 18; Candida parapsilosis 18): 1.25 µM (≈ 1.16 µg/mL)
MIC80 (Candida albicans 24): 1.25 µM (≈ 1.16 µg/mL)
MIC80 [11]: 1.25 µM (≈ 1.16 µg/mL)
MIC80 (Candida albicans 8): 0.6 µM (≈ 0.554 µg/mL)
MIC80 (Candida krusei 25; Candida krusei 25): 1.25 µM (≈ 1.16 µg/mL)
MIC80 (Candida glabrata 20; Candida glabrata 20): 0.6 µM (≈ 0.554 µg/mL)
MIC80 [12]: 0.3 µM (≈ 0.277 µg/mL)
MIC80 (Candida auris 388; Candida auris 388, multidrug-resistant): 2.5 µM (≈ 2.31 µg/mL)
MIC80 (Candida haemulonii 393; Candida haemulonii 393, multidrug-resistant): 5 µM (≈ 4.62 µg/mL)
Structure (SMILES): C[C@@H]1[C@H](O)[C@@H](C)/C=C/C=C/C=C/C=C/C=C/C=C/C=C/[C@H](O[C@@H]2O[C@H](C)[C@@H](O)[C@H](N)[C@@H]2O)C[C@@H]2O[C@](O)(C[C@@H](O)C[C@@H](O)[C@H](O)CC[C@@H](O)C[C@@H](O)CC(=O)O[C@H]1C)C[C@H](O)[C@H]2C(=O)O [AMB, amphotericin B]
MFC [1]: 10 µM (≈ 9.24 µg/mL)
MFC (Candida albicans SC5314): 2.5 µM (≈ 2.31 µg/mL)
MFC [2]: 2.5 µM (≈ 2.31 µg/mL)
MFC ([3]; Paecilomyces lilacinus 165E10): >10 µM
MFC [5]: 10 µM (≈ 9.24 µg/mL)
MIC80 [5]: 2.5 µM (≈ 2.31 µg/mL)
MFC [6, 13]: 5 µM (≈ 4.62 µg/mL)
MFC [7, 14]: 5 µM (≈ 4.62 µg/mL)
MFC [9, 15]: 2.5 µM (≈ 2.31 µg/mL)
MFC ([10]; Rhizopus oryzae FGSC 9543): 0.3 µM (≈ 0.277 µg/mL)
MFC [11]: 2.5 µM (≈ 2.31 µg/mL)
MFC [12]: 2.5 µM (≈ 2.31 µg/mL)

Structure (SMILES): CC[C@H](C)C[C@H](C)C[C@H](C)C[C@@H]1NC(=O)[C@H](C(C)C)N(C)C(=O)[C@@H]([C@H](C)CC)OC(=O)[C@H](C(C)(C)O)N(C)C(=O)[C@H](CC(C)C)NC(=O)[C@H](C(C)C)N(C)C(=O)[C@H]([C@H](C)CC)NC(=O)[C@@H]2CCCN2C(=O)CN(C)C1=O [Compound 1, persephacin] (cyclo(L[NMeVal(β-OH)][X1][NMeV][X2][Sar]P[aIle][NMeV]))
MIC80 (Candida albicans 30): 5 µM (≈ 5.38 µg/mL)
MIC80 (Candida glabrata 17; Nakaseomyces glabratus, 17): 0.15 µM (≈ 0.161 µg/mL)
MFC [1]: > 10 µM
MIC80 [1]: 1.25 µM (≈ 1.34 µg/mL)
MFC (Candida albicans SC5314): 1.25 µM (≈ 1.34 µg/mL)
MIC80 (Candida albicans SC5314): 0.3 µM (≈ 0.323 µg/mL)
MFC [2]: 5 µM (≈ 5.38 µg/mL)
MIC80 [2]: 2.5 µM (≈ 2.69 µg/mL)
MIC80 (Candida albicans 1): 2.5 µM (≈ 2.69 µg/mL)
MFC [3, 16]: > 10 µM
MIC80 [3, 16]: 2.5 µM (≈ 2.69 µg/mL)
MIC80 (Candida glabrata 2; Nakaseomyces glabratus, 2): 0.15 µM (≈ 0.161 µg/mL)
MIC80 (Candida auris 390; Candidozyma auris, 390): 2.5 µM (≈ 2.69 µg/mL)
MIC80 ([4]; Candidozyma duobushaemuli, 391): 2.5 µM (≈ 2.69 µg/mL)
MFC [5]: 5 µM (≈ 5.38 µg/mL)
MIC80 [5]: 0.6 µM (≈ 0.645 µg/mL)
MIC80 (Candida parapsilosis 23; Lodderomyces parapsilosis, 23): 2.5 µM (≈ 2.69 µg/mL)
MIC80 (Candida krusei 397; Pichia kudriavzevii, 397): 2.5 µM (≈ 2.69 µg/mL)
MIC80 (Candida glabrata 16; Nakaseomyces glabratus, 16): 0.3 µM (≈ 0.323 µg/mL)
MFC [6, 17]: 2.5 µM (≈ 2.69 µg/mL)
MIC80 [6, 17]: 2.5 µM (≈ 2.69 µg/mL)
MIC80 (Candida albicans 10): 2.5 µM (≈ 2.69 µg/mL)
MFC ([7]; Pichia kudriavzevii, ATCC6258): 2.5 µM (≈ 2.69 µg/mL)
MIC80 ([7]; Pichia kudriavzevii, ATCC6258): 1.25 µM (≈ 1.34 µg/mL)
MIC80 (Candida auris 382; Candidozyma auris, 382): 2.5 µM (≈ 2.69 µg/mL)
MIC80 (Candida auris 386; Candidozyma auris, 386): 2.5 µM (≈ 2.69 µg/mL)
MIC80 ([8]; read-out: maximum MIC80 value): 5 µM (≈ 5.38 µg/mL)
MIC80 ([8]; read-out: median MIC80): 2.5 µM (≈ 2.69 µg/mL)
MIC80 ([8]; read-out: minimum MIC80 value): 0.15 µM (≈ 0.161 µg/mL)
MIC80 (Candida albicans 21): 1.25 µM (≈ 1.34 µg/mL)
MIC80 (Candida auris 384; Candidozyma auris, 384): 2.5 µM (≈ 2.69 µg/mL)
MIC80 (Candida glabrata 11; Nakaseomyces glabratus, 11): 0.6 µM (≈ 0.645 µg/mL)
MFC ([9]; Candida tropicalis, ATCC750): 2.5 µM (≈ 2.69 µg/mL)
MIC80 ([9]; Candida tropicalis, ATCC750): 1.25 µM (≈ 1.34 µg/mL)
MIC80 (Candida albicans 14): 0.6 µM (≈ 0.645 µg/mL)
MFC ([10]; Rhizopus arrhizus, FGSC9543): > 10 µM
MIC80 ([10]; Rhizopus arrhizus, FGSC9543): > 10 µM
MIC80 (Candida parapsilosis 18; Lodderomyces parapsilosis, 18): 1.25 µM (≈ 1.34 µg/mL)
MIC80 (Candida albicans 24): 0.6 µM (≈ 0.645 µg/mL)
MFC [11]: 2.5 µM (≈ 2.69 µg/mL)
MIC80 [11]: 0.6 µM (≈ 0.645 µg/mL)
MIC80 (Candida albicans 8): 0.6 µM (≈ 0.645 µg/mL)
MIC80 (Candida krusei 25; Pichia kudriavzevii, 25): 1.25 µM (≈ 1.34 µg/mL)
MIC80 (Candida glabrata 20; Nakaseomyces glabratus, 20): 0.3 µM (≈ 0.323 µg/mL)
MFC [12]: 0.6 µM (≈ 0.645 µg/mL)
MIC80 [12]: 0.3 µM (≈ 0.323 µg/mL)
MIC80 (Candida auris 388; Candidozyma auris, 388): 2.5 µM (≈ 2.69 µg/mL)
MIC80 (Candida haemulonii 393; Candidozyma haemuli, 393): 0.3 µM (≈ 0.323 µg/mL)
